Laboratory results reported in patent US11566049B2, “Cyclic peptides and uses thereof” (LATERAL IP PTY LTD, priority 2018, dated 2023).
Where “and” joins values, the source holds several entries; their conditions need not be identical. Identical values can stand only once. Entries after “also recorded” stand apart in the source; their conditions may differ. Positions of bridges follow the written chain, without caps; N, C: chain ends. No end group written: not given here.

Experiments:
dorsal horn neurons [1] = assay: whole-cell recording of dorsal horn neurons in spinal cord slices from Chung models (Example 3); assay type: cell-based, rat; details: 5 μM; for Input Resistance, mean in presence of peptide / Membrane Potential, mean in presence of peptide: all cells; for Normalised Input Resistance / Normalised Input Resistance ΔIR: control = 100; for effect on membrane potential and activity of dorsal horn neurons: ipsilateral to injury; for Normalised Membrane Potential / Normalised Membrane Potential ΔVm: rest = 100; for ΔIR, change in neuronal input resistance: vs control, positive in table = reduction; for ΔVm, change in membrane potential: vs rest, positive in table = hyperpolarisation
Description: Spinal nerve ligation (Chung model; as described in Examples 1 and 2, above) was performed by a single tight ligation on the L5 spinal nerve. […] This animal model is often used as the “gold standard” for neuropathic pain.
Adult male Sprague-Dawley rats, weighing 220-250 g (aged 7 weeks and older) at the time of surgery, were used in this study. They were housed in groups of 4, in an air-conditioned room, on a 12-hour light/dark cycle with food and water available ad libitum. All experiments were performed in accordance with the U. K. Animals (Scientific Procedures) Act (1986).
The animals were housed in groups of 4 in an air-conditioned room on a 12-hour light/dark cycle. Food and water were available ad libitum. Animals were allowed to acclimatise to the environment for experiments for three days by leaving them on a raised metal mesh for at least 40 min. The baseline paw withdrawal threshold (PWT) was examined using a series of graduated von Frey hairs (see below) for 3 consecutive days before surgery and re-assessed on the 6th to 8th day after surgery and on the 12th to 14th day-after surgery before drag dosing.
(§1) Each rat was anaesthetized with 5% isoflurane mixed with oxygen (2 L per min) followed by an intramuscular (i.m.) injection of ketamine 90 mg/kg plus xylazine 10 mg/kg. The back was shaved and sterilized with povidone-iodine. The animal was placed in a prone position and a para-medial incision was made on the skin covering the L4-6 level. The L5 spinal nerve was carefully isolated and tightly ligated with 6/0 silk suture. The wound was then closed in layers after a complete haemostasis. A single dose of antibiotics (Amoxipen, 15 mg/rat, i.p.) was routinely given for prevention of infection after surgery. The animals were placed in a temperature-controlled recovery chamber until fully awake before being returned to their home cages.
The peptides of SEQ ID NO:27 (also referred to herein as LAT9993 Loop) and SEQ ID NO:28 (also referred to herein as LAT9993S or LAT9993 LoopS), were solubilised in distilled water and made up as concentrated stocks and stored frozen until the day of experiment when they were diluted to the required test concentrations in artificial cerebrospinal fluid (aCSF). The aCSF comprised (mM): NaCl, 127; KCl, 1.9; KH2PO4, 1.2; CaCl2, 2.4; MgCl2, 1.3; NaHCO3, 26; D-glucose, 10; equilibrated with 95% O2-5% CO2.
(§2) Ten to fourteen days after surgery, animals were placed in individual Perspex boxes on a raised metal mesh for at least 40 minutes prior to PWT testing. Starting with the filament of lowest force (1 g), each filament was applied perpendicularly to the centre of the ventral surface of the paw until slightly bent for 6 seconds. If the animal withdrew or lifted its paw upon stimulation, a von Frey hair with force immediately lower than that tested was subsequently used. If no response was observed, then a hair with force immediately higher was tested. The lowest amount of force required to induce reliable responses (positive in 2 out of 3 trials) was recorded as the value of PWT. Only animals showing significant mechanical allodynia (PWT≤3.5 g) were selected for subsequent electrophysiological experiments (see FIG. 5).
(§3) Once validation of a neuropathic state had been confirmed, animals were terminally anesthetized using isoflurane (Norvartis Animal Health UK Ltd.), cervically dislocated and decapitated. A laminectomy was performed and the spinal cord, with spinal roots and DRG attached, removed and cut into 250-450 μm thick slices using a Leica VT1000S vibrating microtome (Leica Microsystems UK, Milton Keynes, United Kingdom). Slices were maintained in artificial cerebrospinal fluid (aCSF) at room temperature for 1 hr after slicing before recording. For recording, individual slices were held between two grids in a custom-built chamber continuously perfused with aCSF at a rate of 4-10 ml.min^−1, illuminated from below, and viewed under a dissection microscope. […]

dorsal horn neurons [2] = assay: whole-cell recording of dorsal horn neurons in spinal cord slices from Chung models (Example 4); assay type: cell-based, rat; details: 1 μM; for Input Resistance, mean in presence of peptide / Membrane Potential, mean in presence of peptide: all cells; for Normalised Input Resistance / Normalised Input Resistance ΔIR: control = 100; for effect on membrane potential and activity of dorsal horn neurons: ipsilateral to injury; for Normalised Membrane Potential / Normalised Membrane Potential ΔVm: rest = 100; for ΔIR, change in neuronal input resistance: vs control, in table positive = reduction, negative = increase
Description: Adult male Sprague-Dawley rats, weighing 220-250 g (aged/weeks and older) at the time of surgery, were used in this study. They were housed in groups of 4, in an air-conditioned room, on a 12-hour light/dark cycle with food and water available ad libitum. All experiments were performed in accordance with the U.K. Animals (Scientific Procedures) Act (1986).
The animals were housed in groups of 4 in an air-conditioned room on a 12-hour light/dark cycle. Food and water were available ad libitum. They were allowed to acclimatise to the environment for experiments for three days by leaving them on a raised metal mesh for at least 40 min. The baseline paw withdrawal threshold (PWT) was examined using a series of graduated von Frey hairs (see below) for 3 consecutive days before surgery and re-assessed on the 6th to 8th day after surgery and on the 12th to 14th day after surgery before drug dosing.
as §1
LAT9993 LoopS (SEQ ID NO:28), SEQ11+LAT9993 Loop (SEQ ID NO:32; […]), SEQ25+LAT9993 Loop (SEQ ID NO:33; […]), LAT9993 SLoop A4 (SEQ ID NO:30), LAT9993 SLoop A7 (SEQ ID NO:31), LAT9993 SLoop A9 (SEQ ID NO:34; SCRSRPVEASC) and LAT9993 SLoop A10 (SEQ ID NO:35; SCRSRPVESAC), were solubilised in distilled water and made up as concentrated stocks and stored frozen until the day of experiment when they were diluted to the required test concentrations in artificial cerebrospinal fluid (aCSF), as described in Example 3, above.
as §2
as §3, with “microscope. The aCSF was of the following composition (mM): NaCl, 127; KCl, 1.9; KH2PO4, 1.2; CaCl2, 2.4; MgCl2, 1.3; NaHCO3, 26; D-glucose, 10; equilibrated with 95% O2-5% CO2.” for “microscope.”

In the case of “CRSRPVESSCS (disulfide 1-10 (inferred); listed as Homo sapiens) [LAT9993 LoopS, cyclic peptide of formula (I), disulphide bond between the two cysteine residues]”, the “dorsal root afferent-mediated EPSPs” value (dorsal horn neurons [1]) was “suppression of dorsal root afferent-mediated EPSPs, in one neurone selectively”, the “Input Resistance, mean in presence of peptide” value (from here on “Input Resistance, mean”) (dorsal horn neurons [1]) was 788±191.9 MΩ and 788.0 MΩ and the “Membrane Potential, mean in presence of peptide” value (“Membrane Potential, mean” for short) (dorsal horn neurons [1]) was −50.6±1.8 mV and −50.6 mV. The “Normalised Input Resistance” value (dorsal horn neurons [1]) was 95.6, the “Normalised Input Resistance ΔIR” value (dorsal horn neurons [1]) was 4.4 and the “effect on membrane potential and activity of dorsal horn neurons” value (shortened to “effect”) (dorsal horn neurons [1]) was “membrane hyperpolarisation and inhibition of activity in 3 neurons; also recorded: little effect on a further 2 dorsal horn neurons; also recorded: principally induced inhibition of dorsal horn neurons or was without significant effect”. For the same sequence, the “dorsal root afferent-mediated EPSPs” value (dorsal horn neurons [1]; listed as LAT999 LoopS) was “suppressed dorsal root-evoked excitatory posts-synaptic potentials (EPSPs) in two neurons”, the “dorsal root afferent-mediated EPSPs” value (dorsal horn neurons [1]; listed as LAT9993S) was “suppression of EPSPs; also recorded: selectively suppressed” and the “Normalised Membrane Potential” value (dorsal horn neurons [1]) was 109.2. The “Normalised Membrane Potential ΔVm” value (dorsal horn neurons [1]) was −9.2, the “reversal potential of induced response (VI plots intersect)” value (dorsal horn neurons [1]; single cells) was “around −55 mV” and the “ΔIR, change in neuronal input resistance” value (dorsal horn neurons [1]) was 22.1±24.2 MΩ and 22.1 MΩ. The “ΔVm, change in membrane potential” value (dorsal horn neurons [1]) was 3.8±2 mV and 3.8 mV, the “dorsal root afferent-mediated EPSPs / synaptic inputs (words)” value (dorsal horn neurons [2]) was “either slightly suppressed dorsal root-evoked excitatory post-synaptic potentials (EPSPs) or had little effect; also recorded: little effect” and the “Input Resistance, mean” value (dorsal horn neurons [2]) was 502.6±104.1 MΩ and 502.6 MΩ. The “Membrane Potential, mean” value (dorsal horn neurons [2]) was −44.7±4.3 mV and −44.7 mV, the “Normalised Input Resistance” value (dorsal horn neurons [2]) was 92.8 and the “Normalised Input Resistance ΔIR” value (dorsal horn neurons [2]) was 7.2. The “effect” value (dorsal horn neurons [2]) was “membrane hyperpolarisation and inhibition of activity in 1 neurone; also recorded: membrane depolarisation in the other two neurons; also recorded: small excitation of dorsal horn”, the “dorsal root afferent-mediated EPSPs / synaptic inputs (words)” value (dorsal horn neurons [2]; listed as LAT9993 Loop S) was “little effect” and the “Normalised Membrane Potential” value (dorsal horn neurons [2]) was 91.5. For the same sequence, the “Normalised Membrane Potential ΔVm” value (dorsal horn neurons [2]) was 8.5, the “reversal potential of induced response (VI plots intersect)” value (dorsal horn neurons [2]; single cells) was “around −85 mV” and the “ΔIR, change in neuronal input resistance” value (dorsal horn neurons [2]) was 28.7±34.9 MΩ and 28.7 MΩ.

In the case of “SCRSRPVESAC (listed as Homo sapiens) [LAT9993 SLoop A10, peptide variant of formula (I)]”, the “dorsal root afferent-mediated EPSPs / synaptic inputs (words)” value (dorsal horn neurons [2]) was “little effect”, the “Input Resistance, mean” value (dorsal horn neurons [2]) was 452.3 MΩ and the “Membrane Potential, mean” value (dorsal horn neurons [2]) was −56.8±5.6 mV and −56.8 mV. The “Input Resistance, mean” value (dorsal horn neurons [2]; listed as LAT9993 Loop A10) was 452.3±197.1 MΩ, the “Normalised Input Resistance” value (dorsal horn neurons [2]) was 99.3 and the “Normalised Input Resistance ΔIR” value (dorsal horn neurons [2]) was 0.7. For the same sequence, the “effect” value (dorsal horn neurons [2]; listed as LAT9993 Loop A10) was “membrane hyperpolarisation and inhibition of activity in 2 neurons; also recorded: membrane depolarisation in 1 neurone; also recorded: little effect on dorsal horn neurons”, the “Normalised Membrane Potential” value (dorsal horn neurons [2]) was 101.2 and the “Normalised Membrane Potential ΔVm” value (dorsal horn neurons [2]) was −1.2. For the same sequence, the “ΔIR, change in neuronal input resistance” value (dorsal horn neurons [2]) was −8.5 MΩ, the “ΔIR, change in neuronal input resistance” value (dorsal horn neurons [2]; listed as LAT9993 Loop A10) was 8.5±26.5 MΩ and the “ΔVm, change in membrane potential” value (dorsal horn neurons [2]; vs rest, in table positive = hyperpolarisation, negative = depolarisation) was 0.7±1.2 mV and 0.7 mV.

With “CRSRPVESSC (disulfide 1-10 (inferred); listed as Homo sapiens) [LAT9993 Loop, cyclic peptide of formula (I), disulphide bond between the two cysteine residues]” the “dorsal root afferent-mediated EPSPs” value (dorsal horn neurons [1]) was “suppression; also recorded: suppressed dorsal root afferent mediated excitatory synaptic transmission”, the “evoked inhibitory post-synaptic potentials” value (dorsal horn neurons [1]) was “little effect” and the “Input Resistance, mean” value (dorsal horn neurons [1]) was 566.3±82.0 MΩ and 566.3 MΩ. The “Membrane Potential, mean” value (dorsal horn neurons [1]) was −51.9±3.9 mV and −51.9 mV, the “Normalised Input Resistance” value (dorsal horn neurons [1]) was 92.4 and the “Normalised Input Resistance ΔIR” value (dorsal horn neurons [1]) was 7.6. The “effect” value (dorsal horn neurons [1]) was “marked membrane hyperpolarisation and inhibition of activity in 4 neurons; also recorded: little effect on a further 2 dorsal horn neurons”, the “Normalised Membrane Potential” value (dorsal horn neurons [1]) was 107.2 and the “Normalised Membrane Potential ΔVm” value (dorsal horn neurons [1]) was −7.2. For the same sequence, the “ΔIR, change in neuronal input resistance” value (dorsal horn neurons [1]) was 51.6±75.3 MΩ and 51.6 MΩ and the “ΔVm, change in membrane potential” value (dorsal horn neurons [1]) was 3.5±1.1 mV and 3.5 mV.
